ChEMBL document CHEMBL1135696, “Isotopic effect study of propofol deuteration on the metabolism, activity, and toxicity of the anesthetic” (J Med Chem, 2002)

How the values were obtained:
in vivo = settings: mouse, 24 mg/kg
Description: Therapeutic index (24 mg/kg) in mice (in vivo)

[1] = Lethal Dose in mice (in vivo); settings: mouse
[2] = Kinetic parameter, Km on human hepatic microsomes.; settings: liver microsomes

Structure (SMILES) | selectivity ratio (in vivo) | LD50 [1] [mg/kg] | Km [2] [µM]
[2H]c1cc(C(C)C)c(O)c(C(C)C)c1 [MONODEUTERATED PROPOFOL] | 3 | 39 | 16.7
CC(C)c1cccc(C(C)C)c1O [PROPOFOL] | 2.1 | 32 | 12.3
[2H]c1c([2H])c(C(C)C)c(O)c(C(C)C)c1[2H] [TRIDEUTERATED PROPOFOL] | 2.7 | 35 | 16.4
